Key:
[1] = target: T1, PLA2G16 (Homo sapiens, UniProt P53816); assay: Enzyme activity assay for PLA2G16 (Red/Green BODIPY PC-A2 fluorescence); format: biochemical; settings: His-tagged PLA2G16, 4 min pre-incubation, compound 2 nM to 50 μM; first symbol in parentheses
T1 construct: Hexa-His (N); made in house; host or cells: E. coli BL21(DE3)
T1 sequence (P53816 1-162): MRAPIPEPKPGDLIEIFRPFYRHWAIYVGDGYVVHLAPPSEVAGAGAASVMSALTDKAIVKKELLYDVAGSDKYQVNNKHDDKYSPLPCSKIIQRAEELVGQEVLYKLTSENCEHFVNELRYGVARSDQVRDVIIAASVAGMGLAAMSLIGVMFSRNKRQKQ
In short: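 N-His human PLA2G16 was expressed in E. coli and Ni-NTA purified. Enzyme in 5 mM glutathione was preincubated 4 min with compound (2 nM–50 μM final), then Red/Green BODIPY PC-A2 in DOPC/DOPG/cholesterol vesicles was added (50 mM Tris pH 8.5, 100 mM NaCl). Fluorescence increase (ex 480/em 530 nm) over 10 min gave activity; IC50 came from nonlinear regression.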

[2] = system: picornaviruses (CVB1, HRV-A2, HRV-A23, EV-68); assay: Anti-picornavirus cytopathic effect (CPE) reduction assay on HeLa H1 cells; format: cell-based; settings: 48 h, category from averaging EC50 values of four picornaviruses (CVB1, HRV-A2, HRV-A23, EV68), second symbol in parentheses
In short: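 HeLa H1 cells pre-treated 2 h with serial compound dilutions in 2% FBS DMEM, then infected at an MOI giving full CPE in 2 days; after 48 h, viability by CellTiterBlue fluorescence (560/590 nm) normalised to infected and uninfected vehicle controls; EC50 by non-linear regression, averaged over the four viruses.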

O=C(NCC(F)F)C(=O)[C@@H]1CNC(=O)[C@H]1Cc1ccccc1 (single isomer, unassigned) [FP-84]
IC50 [1]: 1 to 10 µM | EC50 [2]: > 10 µM

O=C(NCC1CC1)C(=O)[C@@H]1CNC(=O)[C@H]1c1ccccc1 (single isomer, unassigned) [FP-85]
IC50 [1]: < 1 µM | EC50 [2]: > 10 µM

O=C(NCC1CC1)C(=O)[C@H]1CNC(=O)[C@@H]1c1ccccc1 (single isomer, unassigned) [FP-86]
IC50 [1]: < 1 µM | EC50 [2]: < 1 µM

CC(F)(F)CNC(=O)C(=O)[C@@H]1CNC(=O)[C@H]1c1ccccc1 (single isomer, unassigned) [FP-87]
IC50 [1]: 1 to 10 µM | EC50 [2]: > 10 µM

CC(F)(F)CNC(=O)C(=O)[C@H]1CNC(=O)[C@@H]1c1ccccc1 (single isomer, unassigned) [FP-88]
IC50 [1]: < 1 µM | EC50 [2]: < 1 µM

O=C(NC1CC1)C(=O)[C@H]1CN(c2cncnc2)C(=O)[C@@H]1Cc1ccccc1 (single isomer, unassigned) [FP-89]
IC50 [1]: < 1 µM | EC50 [2]: < 1 µM

O=C(NC1CC1)C(=O)[C@@H]1CN(c2cncnc2)C(=O)[C@H]1Cc1ccccc1 (single isomer, unassigned) [FP-90]
IC50 [1]: < 1 µM | EC50 [2]: 1 to 10 µM

CC(C)CNC(=O)C(=O)[C@@H]1CN(CC(=O)N(C)C)C(=O)[C@H]1Cc1ccccc1 (single isomer, unassigned) [FP-91]
IC50 [1]: 1 to 10 µM | EC50 [2]: > 10 µM

CC(C)CNC(=O)C(=O)[C@H]1CN(CC(=O)N(C)C)C(=O)[C@@H]1Cc1ccccc1 (single isomer, unassigned) [FP-92]
IC50 [1]: < 1 µM | EC50 [2]: 1 to 10 µM

O=C(NC1CC1)C(=O)[C@H]1CN(c2cnccn2)C(=O)[C@@H]1Cc1ccccc1 (single isomer, unassigned) [FP-93]
IC50 [1]: < 1 µM | EC50 [2]: < 1 µM

O=C(NC1CC1)C(=O)[C@@H]1CN(c2cnccn2)C(=O)[C@H]1Cc1ccccc1 (single isomer, unassigned) [FP-94]
IC50 [1]: < 1 µM | EC50 [2]: 1 to 10 µM

CC(F)(F)CNC(=O)C(=O)[C@H]1CN(c2cncnc2)C(=O)[C@@H]1Cc1ccccc1 (single isomer, unassigned) [FP-95]
IC50 [1]: < 1 µM | EC50 [2]: < 1 µM

CC(F)(F)CNC(=O)C(=O)[C@@H]1CN(c2cncnc2)C(=O)[C@H]1Cc1ccccc1 (single isomer, unassigned) [FP-96]
IC50 [1]: < 1 µM | EC50 [2]: 1 to 10 µM

Cn1ncnc1CN1C[C@@H](C(=O)C(=O)NC2CC2)[C@H](Cc2ccccc2)C1=O (single isomer, unassigned) [FP-97]
IC50 [1]: 1 to 10 µM | EC50 [2]: > 10 µM

Cn1ncnc1CN1C[C@H](C(=O)C(=O)NC2CC2)[C@@H](Cc2ccccc2)C1=O (single isomer, unassigned) [FP-98]
IC50 [1]: < 1 µM | EC50 [2]: 1 to 10 µM

O=C(NC1CC1)C(=O)C1CC(=O)N(Cc2ccccc2)C1 (centres unmarked) [FP-104, 2-(1-Benzyl-5-oxopyrrolidin-3-yl)-N-cyclopropyl-2-oxoacetamide]
IC50 [1]: < 1 µM | EC50 [2]: 1 to 10 µM
